Source: ChEMBL document CHEMBL1926633, “1,2,4-Triazole D-ribose derivatives: design, synthesis and antitumoral evaluation” (Eur J Med Chem, 2012)

Tests used:
[1] = Cytotoxicity against mouse BW5147 cells expressing H-2 k haplotype, CD3+ and TCRalphabeta assessed as cell proliferation at 1 ug/mL after 24 hrs by [3H]TdR incorporation assay relative to control; type: functional; settings: read-out: Activity
[2] = Cytotoxicity against mouse BW5147 cells expressing H-2 k haplotype, CD3+ and TCRalphabeta assessed as cell proliferation at 10 ug/mL after 24 hrs by [3H]TdR incorporation assay relative to control; type: functional; settings: read-out: Activity
[3] = Cytotoxicity against mouse BW5147 cells expressing H-2 k haplotype, CD3+ and TCRalphabeta assessed as cell proliferation at 50 ug/mL after 24 hrs by [3H]TdR incorporation assay relative to control; type: functional; settings: read-out: Activity
[4] = Cytotoxicity against mouse BW5147 cells expressing H-2 k haplotype, CD3+ and TCRalphabeta assessed as cell proliferation at 100 ug/mL after 24 hrs by [3H]TdR incorporation assay relative to control; type: functional; settings: read-out: Activity
[5] = Lipophilicity, log P of the compound; type: physicochemical; settings: octanol/water

| logP [5] | Structure (SMILES) | growth at 1 µg/mL [1] | growth at 10 µg/mL [2] | growth at 50 µg/mL [3] | growth at 100 µg/mL [4] |
| --- | --- | --- | --- | --- | --- |
| 1.95 | C=CCO[C@@H]1O[C@H](CSc2ncn[nH]2)[C@H]2OC3(CCCC3)O[C@@H]12 | -7% | -9% | -29% | -43% |
| -2.45 | C=CCO[C@@H]1O[C@H](CSc2ncn[nH]2)[C@@H](O)[C@H]1O | -2.4% | -3% | -14% | -38% |
| 1.91 | C=CCO[C@@H]1O[C@H](Cn2c(-c3ccc(Cl)cc3)n[nH]c2=S)[C@H]2OC3(CCCC3)O[C@@H]12 | 49% | 44% | 70% | 123% |
| 0.18 | C=CCO[C@@H]1O[C@H](Cn2c(-c3ccc(Cl)cc3)n[nH]c2=S)[C@@H](O)[C@H]1O | -1.5% | 6% | 4.4% | 2% |
| 1.63 | C=CCO[C@@H]1O[C@H](Cn2c(SCc3ccccc3)nnc2-c2ccc(Cl)cc2)[C@H]2OC3(CCCC3)O[C@@H]12 | 37% | 0% | -13% |  |
| 0.9 | COc1cc(C2=NOC(CO[C@@H]3O[C@H](CSc4ncn[nH]4)[C@H]4OC5(CCCC5)O[C@@H]34)C2)cc(OC)c1OC (mixture of isomers) | -5% | -21% | -24% | -45% |
| -0.52 | COc1cc(C2=NOC(CO[C@@H]3O[C@H](CSc4ncn[nH]4)[C@@H](O)[C@H]3O)C2)cc(OC)c1OC (mixture of isomers) | 93% | 51% | 43% | 29% |
| 1.97 | COc1cc(C2=NOC(CO[C@@H]3O[C@H](Cn4c(SCc5ccccc5)nnc4-c4ccc(Cl)cc4)[C@H]4OC5(CCCC5)O[C@@H]34)C2)cc(OC)c1OC (mixture of isomers) | 215% | 60% | -18% | -45% |
| 1.17 | COc1cc(C2=NOC(CO[C@@H]3O[C@H](Cn4c(SCc5ccccc5)nnc4-c4ccc(Cl)cc4)[C@@H](O)[C@H]3O)C2)cc(OC)c1OC (mixture of isomers) | 143% | 210% | -52% | -67% |
